Measured values taken from ChEMBL document CHEMBL3580659, “One-pot multicomponent synthesis of indole incorporated thiazolylcoumarins and their antibacterial, anticancer and DNA cleavage studies” (2015).
Activity calls are given as the source filed them. No cut-off for these calls is given here.

Key:
Bacillus subtilis = assay: Antibacterial activity against Bacillus subtilis assessed as bacterial growth inhibition at 50 ug/ml after 24 hrs by cup-plate agar diffusion method; assay type: functional; conditions: read-out: IZ
Escherichia coli [1] = assay: Antibacterial activity against Escherichia coli assessed as bacterial growth inhibition at 50 ug/ml after 24 hrs by cup-plate agar diffusion method; assay type: functional; conditions: read-out: IZ
Escherichia coli [2] = assay: Induction of DNA cleavage of Escherichia coli pUC18 plasmid DNA at 50 ug/ml after 2 hrs by agarose gel elctrophoresis method
Escherichia coli [3] = assay: Induction of DNA cleavage of Escherichia coli pUC18 plasmid DNA at 100 ug/ml after 2 hrs by agarose gel elctrophoresis method

O=c1oc2ccc(Br)cc2cc1-c1csc(N/N=C/c2c[nH]c3ccccc23)n1
zone of inhibition at 50 µg/mL (Bacillus subtilis): 15 mm | zone of inhibition at 50 µg/mL (Escherichia coli [1]): 13 mm | Activity (Escherichia coli [2]): Active

CCn1cc(/C=N/Nc2nc(-c3cc4cc(Br)ccc4oc3=O)cs2)c2ccccc21
zone of inhibition at 50 µg/mL (Bacillus subtilis): 15 mm | zone of inhibition at 50 µg/mL (Escherichia coli [1]): 15 mm | Activity (Escherichia coli [2]): Active

Cc1[nH]c2ccccc2c1/C=N/Nc1nc(-c2cc3ccccc3oc2=O)cs1
zone of inhibition at 50 µg/mL (Bacillus subtilis): 13 mm | zone of inhibition at 50 µg/mL (Escherichia coli [1]): 10 mm | Activity (Escherichia coli [2]): Active

CCn1cc(/C=N/Nc2nc(-c3cc4c(ccc5ccccc54)oc3=O)cs2)c2ccccc21
zone of inhibition at 50 µg/mL (Bacillus subtilis): 15 mm | zone of inhibition at 50 µg/mL (Escherichia coli [1]): 12 mm | Activity (Escherichia coli [3]): Active

CCn1cc(/C=N/Nc2nc(-c3cc4cc(Br)cc(Br)c4oc3=O)cs2)c2ccccc21
zone of inhibition at 50 µg/mL (Bacillus subtilis): 10 mm | zone of inhibition at 50 µg/mL (Escherichia coli [1]): 10 mm | Activity (Escherichia coli [2]): Active

Cc1[nH]c2ccccc2c1/C=N/Nc1nc(-c2cc3cc(Br)ccc3oc2=O)cs1
zone of inhibition at 50 µg/mL (Bacillus subtilis): 10 mm | zone of inhibition at 50 µg/mL (Escherichia coli [1]): 12 mm | Activity (Escherichia coli [2]): Active

COc1ccc2[nH]cc(/C=N/Nc3nc(-c4cc5ccccc5oc4=O)cs3)c2c1
zone of inhibition at 50 µg/mL (Bacillus subtilis): 13 mm | zone of inhibition at 50 µg/mL (Escherichia coli [1]): 10 mm | Activity (Escherichia coli [2]): Active

O=c1oc2ccc3ccccc3c2cc1-c1csc(N/N=C/c2c[nH]c3ccccc23)n1
zone of inhibition at 50 µg/mL (Bacillus subtilis): 15 mm | zone of inhibition at 50 µg/mL (Escherichia coli [1]): 14 mm | Activity (Escherichia coli [2]): Active

Cc1[nH]c2ccccc2c1/C=N/Nc1nc(-c2cc3cc(Br)cc(Br)c3oc2=O)cs1
zone of inhibition at 50 µg/mL (Bacillus subtilis): 15 mm | zone of inhibition at 50 µg/mL (Escherichia coli [1]): 12 mm | Activity (Escherichia coli [2]): Active

Cc1[nH]c2ccccc2c1/C=N/Nc1nc(-c2cc3cc(Cl)ccc3oc2=O)cs1
zone of inhibition at 50 µg/mL (Bacillus subtilis): 10 mm | zone of inhibition at 50 µg/mL (Escherichia coli [1]): 6 mm | Activity (Escherichia coli [2]): Active

O=c1oc2ccccc2cc1-c1csc(N/N=C/c2c[nH]c3ccc(Br)cc23)n1
zone of inhibition at 50 µg/mL (Bacillus subtilis): 15 mm | zone of inhibition at 50 µg/mL (Escherichia coli [1]): 10 mm | Activity (Escherichia coli [2]): Active

CCn1cc(/C=N/Nc2nc(-c3cc4ccccc4oc3=O)cs2)c2ccccc21
zone of inhibition at 50 µg/mL (Bacillus subtilis): 10 mm | zone of inhibition at 50 µg/mL (Escherichia coli [1]): 10 mm | Activity (Escherichia coli [3]): Active

COc1ccc2[nH]cc(/C=N/Nc3nc(-c4cc5cc(Br)cc(Br)c5oc4=O)cs3)c2c1
zone of inhibition at 50 µg/mL (Bacillus subtilis): 10 mm | zone of inhibition at 50 µg/mL (Escherichia coli [1]): 10 mm | Activity (Escherichia coli [2]): Active

O=c1oc2ccc(Cl)cc2cc1-c1csc(N/N=C/c2c[nH]c3ccccc23)n1
zone of inhibition at 50 µg/mL (Bacillus subtilis): 13 mm | zone of inhibition at 50 µg/mL (Escherichia coli [1]): 15 mm | Activity (Escherichia coli [2]): Active

COc1ccc2[nH]cc(/C=N/Nc3nc(-c4cc5c(ccc6ccccc65)oc4=O)cs3)c2c1
zone of inhibition at 50 µg/mL (Bacillus subtilis): 15 mm | zone of inhibition at 50 µg/mL (Escherichia coli [1]): 12 mm | Activity (Escherichia coli [2]): Active

O=c1oc2c(Br)cc(Br)cc2cc1-c1csc(N/N=C/c2c[nH]c3ccccc23)n1
zone of inhibition at 50 µg/mL (Bacillus subtilis): 10 mm | zone of inhibition at 50 µg/mL (Escherichia coli [1]): 7 mm | Activity (Escherichia coli [2]): Active
